Source: patent EP1667954B1, “BIPOLAR TRANS CAROTENOID SALTS AND THEIR USES” (Diffusion Pharmaceuticals LLC, priority 2003, dated 2005)

Tests used:
[1] = result in words; cited from earlier work
[2] = Diffusivity of oxygen through aqueous solutions
Excerpt: TSC increases survival in mammals following hypoxia, increases oxygen consumption following hypoxia or physiological stress, increases blood pressure following hypoxia, decreases blood acidosis (i.e., decreases blood base deficit, increases blood pH, and decreases plasma lactate level) following hypoxia, decreases organ damage (e.g. liver, kidney) following hypoxia. Thus, the compounds of the disclosure are useful for treating mammal (including human) diseases/conditions which are characterized by low oxygen (hypoxia) such as respiratory diseases, hemorrhagic shock and cardiovascular diseases, multiple organ failure (due to, for example, ARDS sepsis or hemorrhagic shock), chronic renal failure, atherosclerosis, emphysema, asthma, hypertension, cerebral edema, papillomas, spinal cord injuries, stroke, among others. The compounds of the disclosure are also useful for treating mammals at risk for the above-noted diseases/conditions. Other bipolar trans carotenoid salts have similar properties.

[3] = system: hemorrhaged rats (55% blood volume); settings: cited from earlier work
[4] = system: rat model of acute hypoxia; settings: hypoxia with 10% oxygen, treatment after 10 minutes; only 2 of 6 control animals survived; cited from earlier work
physchem = settings: water
Excerpt: (§1) A dilute, eg .00001-.001M, solution of sodium carbonate can be added, dropwise, to deionized water until the pH is 8.0 (the pH of deionized water is usually 5-6). This only takes a few drops of the very dilute sodium carbonate per, say, 50 mls of deionized water.

[5] = TSC by inhalation: drug in the blood stream after nebulizing into the trachea; format: in vivo; settings: rats
Procedure: TSC has been given to rats via an inhalation route. Ten rats were given TSC directly into the lungs. This was done by inserting a tube into the trachea, and nebulizing 0.2 ml of TSC solution (TSC dissolved in dilute sodium carbonate solution) with about 3 to 6 mls of air. For all dosages studied (0.5-2 mg/kg), about 20% of the drug was present in the blood stream within one minute after it was given. For dosages of .8 -1.6 mg/kg the drug was present in the blood stream for a period of at least two hours.

[6] = Dissolution in normal saline and other salt solutions; format: physicochemical; settings: no matter how much TSC is added (up to several milligrams per ml)
Procedure: Large volumes (as much as 3 times the estimated blood loss) of isotonic saline (also called normal saline) are infused as a treatment for hemorrhagic shock. The isotonic saline contains 9 g NaCl per liter of water so as not to disturb the ionic strength of the plasma once it is infused into the body. […] About 50% of the TSC dissolves in normal saline no matter how much TSC is added (up to several milligrams per ml), which means that undissolved particles of TSC are still present. […] The actual composition of the stock solution can be verified using UV-visible spectroscopy. This stock solution can be added to normal saline and the TSC remains dissolved.
This method can be used to dissolve a BTCS in other types of sodium chloride solutions, as well as in solutions of other salts such as KCl, Na2SO4, lactate, etc. Several, eg 1-3 mg/ml, can be put into solution in this manner.

[7] = Aqueous solubility and solution stability of TSC / BTCS
Excerpt: as §1

Structure (SMILES)	solubility in water [1]	increase of diffusivity of oxygen through aqueous solutions [2]	survival ([3]; hemorrhaged rats (55% blood volume), bolus after hemorrhage, saline after another 30 minutes, all controls died)	Whole-body oxygen consumption ([3]; hemorrhaged rats, after about 15 minutes)	survival and hemodynamic stability [4]	solubility (physchem) [µg/mL]	solubility (physchem; pH 8) [µg/mL]	drug present in the blood stream ([5]; inhalation (intratracheal nebulizing), all dosages 0.5-2 mg/kg, within one minute)	period the drug was present in the blood stream ([5]; inhalation, dosages of .8 -1.6 mg/kg)	amount of TSC that dissolves in normal saline [6]	amount completely dissolved in sodium carbonate-deionized water solution ([7]; deionized water brought to pH 8.0 with dilute sodium carbonate)	stability of solutions in water ([7]; tap, distilled, deionized water)
CC(/C=C/C=C(\C)C(=O)O[C@@H]1O[C@H](CO[C@@H]2O[C@H](CO)[C@@H](O)[C@H](O)[C@H]2O)[C@@H](O)[C@H](O)[C@H]1O)=C\C=C\C=C(C)\C=C\C=C(/C)C(=O)O[C@@H]1O[C@H](CO[C@@H]2O[C@H](CO)[C@@H](O)[C@H](O)[C@H]2O)[C@@H](O)[C@H](O)[C@H]1O [crocin]	significant solubility											
CC(/C=C/C=C(\C)C(=O)O)=C\C=C\C=C(C)\C=C\C=C(/C)C(=O)O [crocetin]	only sparingly soluble											
CC(/C=C/C=C(\C)C(=O)O)=C\C=C\C=C(C)\C=C\C=C(/C)C(=O)O [TSC, Trans sodium crocetinate]		about 30%	All of the TSC-treated animals lived	75 % of normal resting value	all survived with good hemodynamic stability for over two hours	~10000	> 10000	about 20%	at least two	About 50%	around 10 mg/ml	only stable if the pH is adjusted so as to make the solution basic
